Experiment [1] addresses T1, endogenous amphibian MSH-receptors (Xenopus laevis, UniProt A0A1L8GF34).
T1 sequence (A0A1L8GF34 1-317): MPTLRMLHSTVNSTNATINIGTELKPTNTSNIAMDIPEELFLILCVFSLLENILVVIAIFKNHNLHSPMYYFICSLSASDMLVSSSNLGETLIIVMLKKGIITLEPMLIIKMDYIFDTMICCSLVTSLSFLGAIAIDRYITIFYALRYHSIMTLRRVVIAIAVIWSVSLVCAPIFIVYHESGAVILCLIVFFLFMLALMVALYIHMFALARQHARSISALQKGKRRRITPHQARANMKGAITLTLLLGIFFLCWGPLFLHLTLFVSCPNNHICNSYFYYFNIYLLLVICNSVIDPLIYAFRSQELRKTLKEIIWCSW
It counts as cell-based. The note with it: against 15 nM α-MSH; melanophores pretreated with 1 nM melatonin; mean±SE. As to the method:
Melanin dispersion responses were quantitated by measuring transmittance through a monolayer of cultured melanophores pretreated with 1 nM melatonin (Potenza, et. al., 1992, Anal Biochem. 206, 315-22) and curve fit with a logistic equation (De Lean et al., 1978, Am J. Physiol. 235, E97-E102).
Broken lines indicate 99% confidence level.
(§1) Each point represents the mean and SSD of four independent transmittance measurements. Ti=initial transmittance (2 min.). Tf=final transmittance (60 min.).
(§2) For dose-response studies all tripeptides were synthesized on Rink Amide MBHA resin 0.25 mmol scale using standard Fmoc chemistry. After synthesis, peptides were purified suing HPLC and reverse-phase chromatography on a C18 column. The dose-response curves were obtained by microtiter plate assays (Potenza et al, 1992, Pigment Cell Res. 5, 372-378). Melanophore cells (18,000/well) were plated on 96-well tissue culture plates (Falcon).

The subject of experiment [2] is [Arg^8]-vasotocin (AVT) activated pigment dispersion in Xenopus melanophores. The note with it: read-out: EC50 (pigment dispersion). As to the method:
as §1, §2
(§3) The 221,184 component library was organized as 96 sub-libraries with 2,304 different peptide combinations per pool, each defined by the chemical structure of the amino terminal position.

Experiment [3] concerns α-MSH mediated cAMP second messenger stimulation. Description: α-MSH mediated intracellular cAMP stimulation in Xenopus melanophores. Type of experiment: cell-based, Xenopus laevis. The note with it: peptide at 40 μM; α-MSH 10 nM. As to the method:
(§4) Oxytocin antagonist GVT ([d(CH2)5, Tyr (Me)^2, Orn^8]-Vasotocin; from Peninsula), at 20 μM, is used as a control to block responses evoked by 8 Nm AVT. Intracellular CAMP measurements were taken from confluent Xenopus melanophores grown in 24-well tissue culture plates (Falcon). Each bar represents the mean and SSD of four independent measurements. *(T-test; P<0.001) for all groups except those bearing asterisks.
(§5) Melanophores were plated confluently into 24-well tissue culture (Falcon) plates two days before the assay. Immediately prior to an assay, cells were washed with 70% L-15 medium (Sigma) containing 0.05% bovine serum albumin and then treated with 1 nm melatonin in the same medium. Then, cells were washed for 5 min in 70% L-15+0.05% bovine serum albumin+0.5 mm 3-isobutyl-1-methylxanthine (Aldrich)+1 nm melatonin, followed by 30 min of treatment with the test drug in the same media. After the drug treatment, cells were washed twice with 70% phosphate-buffered saline.
(§6) Oxytocin antagonist GVT ([d(CH2)5, Tyr (Me)^2, Orn^8]-Vasotocin; from Peninsula), at 20 μM, is used as a control to block responses evoked by 8 nM AVT.

Experiment [4] relates to cAMP stimulation evoked by AVT. Briefly: AVT evoked intracellular cAMP stimulation in Xenopus melanophores. The note with it: AVT 8 nM. It counts as cell-based, Xenopus laevis. The protocol:
as §4, §5, §6

The test system of experiment [5] is vasoactive intestinal peptide (VIP) activated pigment dispersion in Xenopus melanophores. The note with it: read-out: EC50 (pigment dispersion). The protocol:
as §1, §2, §3

Non-standard residues stand in square brackets, D forms with d. No end group written: not given here. Nle = CCCC[C@H](N)C(=O)O

As a reminder, the EC50 is the concentration needed to bring the measured effect to its halfway point.

Regarding D-Trp-Arg-γAbu-NH2 [A11], the “IC50 (μM)” value in experiment [1] was “Inactive”.

Regarding D-Trp-Arg-εAhx-NH2 [A12], the “IC50 (μM)” value in experiment [1] is “Inactive”. On the same count and under the same terms, for D-Trp-Arg-Ala-NH2 [A13] the value was “Inactive”; for D-Trp-Arg-βAla-NH2 [A14], “Inactive”; for [dW]-Asp-[Nle]-NH2 [B8], “Inactive”. On to [Arg^8]-vasotocin [AVT], for which the EC50 in experiment [2] is around 2 nM. D-Trp-Arg-Nle-NH2 [A2]: the “block of α-MSH mediated cAMP stimulation” value in experiment [3] is “blocks”. Further, the “block of cAMP stimulation evoked by AVT” value in experiment [4] (peptide at 40 μM) is given as “does not block”. Turning to Vasoactive Intestinal Peptide [VIP], the EC50 in experiment [5] is around 1 nM. Turning to “[d(CH2)5, Tyr (Me)^2, Orn^8]-Vasotocin [GVT, reference compound]”, in experiment [4] (antagonist at 20 μM, control), the “block of responses evoked by AVT (cAMP)” value is recorded as “block”.
